{
  "source": "patent US20220119460A1",
  "about": "“Means and Methods to Overrule Glucose-Mediated Repression of Respiration in Yeast” (priority 2019, published 2022)",
  "key": {"[1]": {"system": "S. cerevisiae strain AN63", "assay": "Growth rate in stable sugar conditions (5% galactose) with antimycin A", "type": "cell-based", "details": "41 respiratory deletion mutants, compared with slowest growing mutants without the compound (FIG. 2D)", "method": "(§1) All population growth measurements were performed using Bioscreen C machines (Growth Curves USA). For the gradual shift experiments, cells were inoculated in a 96-well plate containing YP plus 5% glucose (high-glucose [HG]) medium and serially diluted for growth overnight at 30° C. shaking at 900 rpm. Cultures at an OD600 of 0.1 were transferred to a new plate and serially diluted in fresh HG medium for growth overnight. The next day, cultures at an OD600 of 0.1 were washed three times into YP plus 0.5% glucose (low glucose [LG]) plus the appropriate carbohydrate source, with or without 3 μg/ml of antimycin A, and diluted so that the initial cell concentration for the Bioscreen C measurements was 10^5 cells/ml. OD600 measurements were taken every 15 min for 7 days or until the cultures reached stationary phase.\nThe same procedure was followed for the stationary growth experiments, replacing the HG medium from pregrowth and the final growth medium with 5% galactose. […]\n(§2) The growth rate was then obtained by calculating the discrete derivative of In(OD600,me) versus time. […] In the case of two exponential phases in the growth curve (i.e., conditions with a mix of carbon sources in the medium), the maximum growth rate for each phase (maxR1, maxR2) was detected. Once these parameters were determined, the lag time was calculated by the time difference between two time points: the start and the end. […]"}, "[2]": {"system": "S. cerevisiae strain AN63", "assay": "Population growth lag time measurement, gradual glucose-to-galactose shift with antimycin A", "type": "cell-based", "details": "3 μg/ml antimycin A in medium; 0.5% glucose plus 5% galactose; wild type and 41 respiratory deletion mutants (FIG. 2B)", "method": "Population Growth Lag Time Measurements (Antimycin a Treatment and Glucose-to-Galactose Shift).\nas §1, with “OD600 measurements were taken every 15 min for 7 days or until the cultures reached stationary phase.” left out\nwhere the cx subscript stands for corrected and the me subscript stands for measured.\nas §2"}},
  "data": [
    {"substance": "antimycin A", "values": [
      {"measurement": "growth rate in the presence of antimycin A", "setting": "[1]", "result": "equally low growth rates"},
      {"measurement": "prolongation of the lag times", "setting": "[2]", "result": "up to 2.2 fold"}
    ]}
  ]
}
